Laboratory results: EP3722296B1, “DIHYDRONAPHTHYRIDINES AND RELATED COMPOUNDS USEFUL AS KINASE INHIBITORS FOR THE TREATMENT OF PROLIFERATIVE DISEASES” (Deciphera Pharmaceuticals, LLC, priority 2012, dated 2013)

Experiments:
GIST430 cells = assay: GIST 430 Cell Proliferation Assay; format: cell-based; conditions: Homo sapiens, 120 h, 115 hours + 5 hours resazurin
Procedure: GIST48, GIST430, and GIST882 cells were obtained from J. Fletcher (Brigham and Women's Hospital, Boston, MA). GIST T1 cells were obtained from B. Rubin (Cleveland Clinic, Cleveland, OH) and Professor Takahiro Taguchi (Kochi Medical School, Nankoku, Kochi, Japan). Briefly, GIST48 and GIST 882 cells were grown in RPMI 1640 medium supplemented with 15% characterized fetal bovine serum (Invitrogen, Carlsbad, CA), 1 unit/mL penicillin G, 1 µg/ml streptomycin, and 0.29 mg/mL L-glutamine at 37 °C, 5% CO2, and 95% humidity. GIST430 cells were grown in Ham's F10 medium supplemented with 15% characterized fetal bovine serum (Invitrogen, Carlsbad, CA), 30 mg/L bovine pituitary extract (BD Biosciences, San Jose, CA), 0.5% Mito+ serum extender (BD Biosciences, San Jose, CA), 1 unit/mL penicillin G, 1 µg/ml streptomycin, and 0.29 mg/mL L-glutamine at 37 °C, 5%CO2, 95% humidity. GIST T1 cells were grown in DMEM medium supplemented with 10% characterized fetal bovine serum (Invitrogen, Carlsbad, CA), 1 unit/mL penicillin G, 1 µg/ml streptomycin, and 0.29 mg/mL L-glutamine at 37 °C, 5% CO2, and 95% humidity.
A serial dilution of test compound was dispensed into a 384-well black clear bottom plate (Corning, Corning, NY). Two thousand five-hundred cells were added per well in 50 µL complete growth medium. Plates were incubated for 115 hours at 37°C, 5% CO2, 95% humidity. At the end of the incubation period 10 µL of a 440 µM solution of resazurin (Sigma, St. Louis, MO) in PBS was added to each well and incubated for an additional 5 hours at 37°C, 5% CO2, 95% humidity. Plates were read on a Synergy2 reader (Biotek, Winooski, VT) using an excitation of 540 nm and an emission of 600 nm.

c-KIT VVDV kinase = target: T1, c-KIT VVDV kinase (Homo sapiens, UniProt P10721, D816V/DEL559-560); assay: cKIT-VVDV kinase Assay; format: biochemical; conditions: enzymatic assay; V559+V560 deletions and D816V mutation
T1 construct: This construct contains residues T544-V976 of cKit; GST (N); TEV cleavage site (internal); purchased deCODE Biostructures
Method in brief: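 Coupled spectrophotometric format: kinase activity followed as NADH oxidation, loss of absorbance at 340 nm. Serially diluted compound mixed with the reaction mixture to start; read continuously for 5 h at 30 °C.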

V560D/N822K = target: T2, V560D/N822K (Homo sapiens, UniProt P10721, N822K/V560D); assay: CHO K1 phospho-KIT ELISA; format: cell-based; conditions: transient transfected CHO K1 cells, phospho-c-KIT (Tyr719), read-out: KIT kinase domain mutations (primary/secondary): V560D / N822K
T2 construct: V5 (vector-encoded); expressed in transfected cells; host or cells: CHO K1
Procedure: (§2) CHO K1 cells (catalog #CCL-61) were obtained from the American Type Culture Collection, Manassas, VA. […] Cells were allowed to expand until reaching 70-95% confluency at which point they were subcultured or harvested for assay use.
(§3) Cells were then incubated overnight at 37°C, 5% CO2, 95% RH. Transfection-grade pcDNA3.2 V5 DEST expression vector containing KIT variant, Lipofectamine LTX Reagent, and PLUS reagent (Invitrogen, Carlsbad, CA) were diluted into Opti-MEM® I medium (Invitrogen, Carlsbad, CA). The tube was incubated at room temperature to allow formation of DNA-Lipofectamine LTX complexes. The DNA-lipofectamine LTX complex mix was added directly to each well and mixed gently. Eighteen hours post-transfection, medium was replaced with serum-free RPMI medium. A serial dilution of test compound was added, and plates were incubated for 4 hours at 37°C, 5% CO2, 95% RH. Cell lysates were prepared, then phospho-c-KIT (Tyr719) was measured by using a Human phospho-c-KIT ELISA kit (Cell Signaling, Beverly, MA). Data was analyzed using Prism software (Graphpad, San Diego, CA) to calculate IC50 values.

D816V KIT = target: T3, D816V KIT (Homo sapiens, UniProt P10721, D816V); assay: CHO K1 phospho-KIT Western; format: cell-based; conditions: transient transfected CHO K1 cells, phospho-KIT (Tyr719), read-out: KIT kinase domain mutations (primary/secondary): D816V
T3 construct: V5 (vector-encoded); expressed in transfected cells; host or cells: CHO K1
Procedure: (§1) Cells were washed with PBS, then lysed. Cell lysates were separated by SDS-PAGE and transferred to PVDF. Phospho-KIT (Tyr719) was detected using an antibody from Cell Signaling Technology (Beverly, MA), ECL Plus detection reagent (GE Healthcare, Piscataway, NJ) and a Molecular Devices Storm 840 phosphorimager in fluorescence mode. Blots were stripped and probed for total KIT using an antibody from Santa Cruz Biotech (Santa Cruz, CA). IC50 values were calculated using Prism software (Graphpad, San Diego, CA).

D820A KIT = target: T4, D820A KIT (Homo sapiens, UniProt P10721, D820A); assay: CHO K1 phospho-KIT Western; format: cell-based; conditions: transient transfected CHO K1 cells, phospho-KIT (Tyr719), read-out: KIT kinase domain mutations (primary/secondary): D820A
T4 construct: V5 (vector-encoded); expressed in transfected cells; host or cells: CHO K1
Procedure: as §1

[1] = target: T5, VV559-560 deletion/D816V KIT (Homo sapiens, UniProt P10721, D816V/DEL559-560); assay: CHO K1 phospho-KIT Western; format: cell-based; conditions: transient transfected CHO K1 cells, phospho-KIT (Tyr719), read-out: KIT kinase domain mutations (primary/secondary): VV559-560 deletion / D816V
T5 construct: expressed in transfected cells; host or cells: CHO K1
Procedure: as §1

V560D/Y823D = target: T6, V560D/Y823D (Homo sapiens, UniProt P10721, V560D/Y823D); assay: CHO K1 phospho-KIT ELISA; format: cell-based; conditions: transient transfected CHO K1 cells, phospho-c-KIT (Tyr719), read-out: KIT kinase domain mutations (primary/secondary): V560D / Y823D
T6 construct: V5 (vector-encoded); expressed in transfected cells; host or cells: CHO K1
Procedure: as §2, §3

[2] = target: T7, WKV557-559 deletion/C557insertion/D820A (Homo sapiens, UniProt P10721, D820A/DEL557-558/V559C); assay: CHO K1 phospho-KIT ELISA; format: cell-based; conditions: transient transfected CHO K1 cells, phospho-c-KIT (Tyr719), read-out: KIT kinase domain mutations (primary/secondary): WKV557-559 deletion
T7 construct: V5 (vector-encoded); expressed in transfected cells; host or cells: CHO K1
Procedure: as §2, §3

[3] = target: T8, AY502 duplication/D816G KIT (Homo sapiens, UniProt P10721, D816G/DUP502-503); assay: CHO K1 phospho-KIT ELISA; format: cell-based; conditions: transient transfected CHO K1 cells, phospho-c-KIT (Tyr719), read-out: KIT kinase domain mutations (primary/secondary): AY502 duplication / D816G
T8 construct: V5 (vector-encoded); expressed in transfected cells; host or cells: CHO K1
T8 sequence (P10721 with tags, fused parts or gaps DUP502-503/D816G): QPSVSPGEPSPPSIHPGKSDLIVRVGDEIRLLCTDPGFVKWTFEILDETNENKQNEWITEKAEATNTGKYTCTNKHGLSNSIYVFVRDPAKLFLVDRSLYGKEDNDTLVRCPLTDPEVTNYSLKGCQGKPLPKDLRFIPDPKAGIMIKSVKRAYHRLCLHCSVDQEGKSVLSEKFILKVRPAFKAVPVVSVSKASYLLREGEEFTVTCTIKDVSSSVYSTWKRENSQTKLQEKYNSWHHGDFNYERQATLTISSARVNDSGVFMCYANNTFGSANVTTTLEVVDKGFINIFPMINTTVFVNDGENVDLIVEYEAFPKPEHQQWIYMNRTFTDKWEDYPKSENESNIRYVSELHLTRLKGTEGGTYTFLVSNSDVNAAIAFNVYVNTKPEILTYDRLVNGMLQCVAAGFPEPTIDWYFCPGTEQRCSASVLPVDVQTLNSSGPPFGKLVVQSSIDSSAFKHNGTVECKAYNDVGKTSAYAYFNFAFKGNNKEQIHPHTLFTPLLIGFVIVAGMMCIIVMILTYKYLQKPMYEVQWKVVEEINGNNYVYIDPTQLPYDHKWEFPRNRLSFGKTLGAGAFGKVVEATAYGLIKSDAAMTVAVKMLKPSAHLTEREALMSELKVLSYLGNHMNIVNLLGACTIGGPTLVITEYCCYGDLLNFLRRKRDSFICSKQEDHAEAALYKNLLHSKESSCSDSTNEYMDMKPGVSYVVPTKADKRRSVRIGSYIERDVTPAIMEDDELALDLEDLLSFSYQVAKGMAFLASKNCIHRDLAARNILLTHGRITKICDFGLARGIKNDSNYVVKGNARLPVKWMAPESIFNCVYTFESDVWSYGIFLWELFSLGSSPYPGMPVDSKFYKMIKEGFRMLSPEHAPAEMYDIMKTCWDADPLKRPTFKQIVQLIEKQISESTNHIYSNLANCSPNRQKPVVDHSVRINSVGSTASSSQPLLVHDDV
Procedure: as §2, §3

T1 sequence (P10721 with tags, fused parts or gaps DEL559-560/D816V): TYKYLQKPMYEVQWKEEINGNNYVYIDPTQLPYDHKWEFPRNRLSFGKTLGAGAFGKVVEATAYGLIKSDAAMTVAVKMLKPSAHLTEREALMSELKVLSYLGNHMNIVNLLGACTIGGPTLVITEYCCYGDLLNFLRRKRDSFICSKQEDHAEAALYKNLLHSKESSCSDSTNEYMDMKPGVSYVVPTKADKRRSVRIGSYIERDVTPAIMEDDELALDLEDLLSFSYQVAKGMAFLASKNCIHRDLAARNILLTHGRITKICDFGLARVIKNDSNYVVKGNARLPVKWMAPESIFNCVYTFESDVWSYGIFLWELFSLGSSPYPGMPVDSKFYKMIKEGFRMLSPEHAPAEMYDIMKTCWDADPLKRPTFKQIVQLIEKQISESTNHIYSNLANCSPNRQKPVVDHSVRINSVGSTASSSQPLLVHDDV
T5 sequence (P10721 with tags, fused parts or gaps DEL559-560/D816V): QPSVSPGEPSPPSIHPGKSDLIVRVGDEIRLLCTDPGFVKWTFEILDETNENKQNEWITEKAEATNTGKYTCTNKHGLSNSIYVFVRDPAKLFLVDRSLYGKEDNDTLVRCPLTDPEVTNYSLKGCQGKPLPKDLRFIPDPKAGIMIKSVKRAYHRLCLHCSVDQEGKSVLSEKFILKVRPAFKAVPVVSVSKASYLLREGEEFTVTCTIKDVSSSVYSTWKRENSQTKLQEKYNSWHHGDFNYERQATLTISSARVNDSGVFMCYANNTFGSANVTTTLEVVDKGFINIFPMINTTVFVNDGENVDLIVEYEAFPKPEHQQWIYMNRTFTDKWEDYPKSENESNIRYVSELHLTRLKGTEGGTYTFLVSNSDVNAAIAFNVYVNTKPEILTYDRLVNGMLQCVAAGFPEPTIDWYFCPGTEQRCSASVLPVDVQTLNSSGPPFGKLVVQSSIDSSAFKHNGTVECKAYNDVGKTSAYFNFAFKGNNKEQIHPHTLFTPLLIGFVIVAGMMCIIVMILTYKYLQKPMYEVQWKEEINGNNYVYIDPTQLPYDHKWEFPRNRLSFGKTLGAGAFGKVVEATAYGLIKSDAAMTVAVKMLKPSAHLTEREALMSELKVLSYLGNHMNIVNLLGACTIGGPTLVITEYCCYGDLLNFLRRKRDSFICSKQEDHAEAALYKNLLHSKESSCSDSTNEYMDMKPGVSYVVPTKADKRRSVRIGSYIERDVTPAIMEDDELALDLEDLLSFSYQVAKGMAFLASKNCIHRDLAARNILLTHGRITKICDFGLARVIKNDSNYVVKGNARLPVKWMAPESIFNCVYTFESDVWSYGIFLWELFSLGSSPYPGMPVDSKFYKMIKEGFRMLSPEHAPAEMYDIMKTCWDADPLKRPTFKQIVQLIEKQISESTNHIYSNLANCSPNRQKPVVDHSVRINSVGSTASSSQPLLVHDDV
T7 sequence (P10721 with tags, fused parts or gaps DEL557-558/V559C/D820A): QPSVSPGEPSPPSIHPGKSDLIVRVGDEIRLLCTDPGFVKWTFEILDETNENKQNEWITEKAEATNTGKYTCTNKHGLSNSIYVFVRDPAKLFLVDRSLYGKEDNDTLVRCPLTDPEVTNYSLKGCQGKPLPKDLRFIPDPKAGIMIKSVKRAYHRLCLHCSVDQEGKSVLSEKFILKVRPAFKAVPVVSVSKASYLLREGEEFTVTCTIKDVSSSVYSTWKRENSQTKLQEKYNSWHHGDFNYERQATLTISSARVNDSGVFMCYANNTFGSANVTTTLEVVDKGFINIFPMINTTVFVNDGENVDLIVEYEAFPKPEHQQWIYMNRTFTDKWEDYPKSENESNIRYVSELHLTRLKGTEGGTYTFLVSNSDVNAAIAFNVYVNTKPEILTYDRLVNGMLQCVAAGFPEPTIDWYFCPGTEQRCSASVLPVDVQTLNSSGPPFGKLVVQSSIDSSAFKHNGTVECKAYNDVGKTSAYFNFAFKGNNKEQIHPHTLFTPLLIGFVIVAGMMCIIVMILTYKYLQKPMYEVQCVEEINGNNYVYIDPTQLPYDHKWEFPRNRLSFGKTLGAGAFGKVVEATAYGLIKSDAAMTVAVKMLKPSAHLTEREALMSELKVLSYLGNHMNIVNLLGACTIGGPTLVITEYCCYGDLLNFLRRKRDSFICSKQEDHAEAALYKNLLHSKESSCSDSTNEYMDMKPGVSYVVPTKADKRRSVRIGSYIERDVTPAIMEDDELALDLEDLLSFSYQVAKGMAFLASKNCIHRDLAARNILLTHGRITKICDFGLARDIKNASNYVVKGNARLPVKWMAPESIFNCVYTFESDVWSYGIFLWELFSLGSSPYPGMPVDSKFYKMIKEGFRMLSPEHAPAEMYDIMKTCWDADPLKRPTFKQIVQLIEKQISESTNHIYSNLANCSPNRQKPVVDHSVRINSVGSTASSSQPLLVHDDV
T3 sequence (P10721 26-976 D816V): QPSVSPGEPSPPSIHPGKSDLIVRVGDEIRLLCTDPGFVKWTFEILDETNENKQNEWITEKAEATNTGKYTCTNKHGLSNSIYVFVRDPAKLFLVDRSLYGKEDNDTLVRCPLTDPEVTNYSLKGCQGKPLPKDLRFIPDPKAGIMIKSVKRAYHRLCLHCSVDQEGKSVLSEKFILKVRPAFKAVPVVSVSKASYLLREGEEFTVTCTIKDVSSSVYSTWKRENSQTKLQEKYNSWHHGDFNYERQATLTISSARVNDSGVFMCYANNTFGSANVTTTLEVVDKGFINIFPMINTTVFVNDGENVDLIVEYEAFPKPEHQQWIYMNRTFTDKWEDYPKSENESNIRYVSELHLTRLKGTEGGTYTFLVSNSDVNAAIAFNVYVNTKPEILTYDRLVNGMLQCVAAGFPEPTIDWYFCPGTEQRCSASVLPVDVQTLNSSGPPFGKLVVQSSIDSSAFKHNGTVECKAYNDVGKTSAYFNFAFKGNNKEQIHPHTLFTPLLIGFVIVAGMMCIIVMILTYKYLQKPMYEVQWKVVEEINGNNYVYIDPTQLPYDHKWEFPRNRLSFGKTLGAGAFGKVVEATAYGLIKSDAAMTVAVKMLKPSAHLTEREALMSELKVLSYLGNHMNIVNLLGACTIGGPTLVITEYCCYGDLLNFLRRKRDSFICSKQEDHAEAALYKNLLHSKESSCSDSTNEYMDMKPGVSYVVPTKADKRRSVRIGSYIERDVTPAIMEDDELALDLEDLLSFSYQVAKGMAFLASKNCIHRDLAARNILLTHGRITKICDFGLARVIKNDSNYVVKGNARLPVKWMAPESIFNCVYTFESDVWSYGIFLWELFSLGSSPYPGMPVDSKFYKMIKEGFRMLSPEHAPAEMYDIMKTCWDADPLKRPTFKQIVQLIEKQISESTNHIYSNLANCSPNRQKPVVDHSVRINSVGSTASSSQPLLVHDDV
T2 sequence (P10721 26-976 V560D/N822K): as the sequence (P10721 26-976 D816V) above, with V535D, V791D, N797K counted along it
T6 sequence (P10721 26-976 V560D/Y823D): as the sequence (P10721 26-976 D816V) above, with V535D, V791D, Y798D counted along it
T4 sequence (P10721 26-976 D820A): as the sequence (P10721 26-976 D816V) above, with V791D, D795A counted along it

SMILES | IC50 (c-KIT VVDV kinase) [nM] | IC50 (V560D/N822K) [nM] | IC50 (D816V KIT) [nM] | IC50 (D820A KIT) [nM] | IC50 [1] [nM] | IC50 (V560D/Y823D) [nM] | IC50 [2] [nM] | IC50 [3] [nM] | IC50 (GIST430 cells) [nM]
CCn1c(=O)c(-c2cc(NC(=O)Nc3ccccc3)c(F)cc2C)cc2cnc(NC)cc21 [Example 23, 1-(5-(1-ethyl-7-(methylamino)-2-oxo-1,2-dihydro-1,6-naphthyridin-3-yl)-2-fluoro-4-methylphenyl)-3-phenylurea] | 10 to 100 | 10 to 100 | > 1000 | 10 to 100 | 100 to 1000 | < 10 | 10 to 100 | 10 to 100 | 10 to 100
CCn1c(=O)c(-c2cc(NC(=O)Nc3ccccc3)c(F)cc2Cl)cc2cnc(NCCOC)cc21 [Example 27, 1-(4-chloro-5-(1-ethyl-7-(2-methoxyethylamino)-2-oxo-1,2-dihydro-1,6-naphthyridin-3-yl)-2-fluorophenyl)-3-phenylurea] | 10 to 100 |  |  |  |  |  |  |  | 100 to 1000
CCn1c(=O)c(-c2cc(NC(=O)Nc3cccc(F)c3)c(F)cc2C)cc2cnc(NC)cc21 [Example 44, 1-(5-(1-ethyl-7-(methylamino)-2-oxo-1,2-dihydro-1,6-naphthyridin-3-yl)-2-fluoro-4-methylphenyl)-3-(3-fluorophenyl)urea] | 10 to 100 |  |  |  |  |  |  |  | 10 to 100
CCn1c(=O)c(-c2cc(NC(=O)Nc3csc4ccccc34)c(F)cc2C)cc2cnc(NC)cc21 [Example 59, 1-(benzo[b]thiophen-3-yl)-3-(5-(1-ethyl-7-(methylamino)-2-oxo-1,2-dihydro-1,6-naphthyridin-3-yl)-2-fluoro-4-methylphenyl)urea] | 10 to 100 | < 10 | < 10 | 10 to 100 | 10 to 100 | < 10 | < 10 |  | 
CCn1c(=O)c(-c2cc(NC(=O)Nc3ccccc3)c(F)cc2Cl)cc2cnc(NC(=O)OC)cc21 [Example 73, methyl (3-(2-chloro-4-fluoro-5-(3-phenylureido)phenyl)-1-ethyl-2-oxo-1,2-dihydro-1,6-naphthyridin-7-yl)carbamate] | < 10 |  |  |  |  |  |  |  | 

More lines, main results first:

IC50 (c-KIT VVDV kinase) [nM] | IC50 (V560D/N822K) [nM] | IC50 (D816V KIT) [nM] | IC50 (D820A KIT) [nM] | IC50 [1] [nM] | IC50 (V560D/Y823D) [nM] | IC50 [2] [nM] | IC50 [3] [nM] | SMILES | IC50 (GIST430 cells) [nM]
< 10 |  |  |  |  |  |  |  | CCn1c(=O)c(-c2cc(NC(=O)Nc3ccccc3)c(F)cc2Cl)cc2cnc(NC)cc21 [Example 3, 1-(4-chloro-5-(1-ethyl-7-(methylamino)-2-oxo-1,2-dihydro-1,6-naphthyridin-3-yl)-2-fluorophenyl)-3-phenylurea] | 10 to 100
< 10 |  |  |  |  |  |  |  | CCn1c(=O)c(-c2cc(NC(=O)Nc3csc4ccccc34)c(F)cc2Cl)cc2cnc(NC)cc21 [Example 32, 1-(benzo[b]thiophen-3-yl)-3-(4-chloro-5-(1-ethyl-7-(methylamino)-2-oxo-1,2-dihydro-1,6-naphthyridin-3-yl)-2-fluorophenyl)urea] | 10 to 100
< 10 |  |  |  |  |  |  |  | CCn1c(=O)c(-c2cc(NC(=O)Nc3ccccc3)c(F)cc2Cl)cc2cnc(NC(=O)N(C)C)cc21 [Example 70, 3-(3-(2-chloro-4-fluoro-5-(3-phenylureido)phenyl)-1-ethyl-2-oxo-1,2-dihydro-1,6-naphthyridin-7-yl)-1,1-dimethylurea] | 
